Source: BigSolDB 2.1

NS(=O)(=O)Cc1noc2ccccc12
solubility (mole fraction)
Conditions | 278.15 K | 283.15 K | 288.15 K | 293.15 K | 298.15 K | 303.15 K | 308.15 K | 313.15 K | 318.15 K | 323.15 K
in DMF | 0.0292 | 0.0356 | 0.0428 | 0.0514 | 0.0612 | 0.0721 | 0.0852 | 0.101 | 0.118 | 0.136
in acetonitrile | 0.00682 | 0.00802 | 0.00937 | 0.0108 | 0.0124 | 0.0142 | 0.0162 | 0.0183 | 0.0207 | 0.0233
in ethanol | 0.00139 | 0.00162 | 0.00185 | 0.00215 | 0.00245 | 0.00279 | 0.00316 | 0.00356 | 0.004 | 0.00446
in isopropanol | 0.000797 | 0.000963 | 0.00115 | 0.00137 | 0.00163 | 0.00192 | 0.00226 | 0.00264 | 0.00306 | 0.00352
in water | 1.78e-05 | 2.5e-05 | 3.43e-05 | 4.67e-05 | 6.49e-05 | 8.56e-05 | 0.000112 | 0.00015 | 0.000196 | 0.000256
